According to the supplement of paper PMC10307832:

Tests used:
Assay in all cases: relative viability (nuclei count vs DMSO), 5 days (fraction); higher = more cells survive
IMD-0354 + Phenformin = compound: O=C(Nc1cc(C(F)(F)F)cc(C(F)(F)F)c1)c1cc(Cl)ccc1O [IMD-0354] + N=C(N)NC(=N)NCCc1ccccc1 [Phenformin] (partner 250 µM)
In short: (§1)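 Lung cancer cell lines were seeded in 1536-well plates and dosed by pin tool the next day, with either a single drug or a fixed anchor-drug dose combined with five library-drug doses (not always all listed) spaced in √10 steps. Five days later, one step fixed the cells and stained their nuclei (final 0.05% Triton X-100, 1% formaldehyde, 1 ug/ml Hoechst), and nuclei were counted on 4× images. Relative viability is the nuclei count in treated wells divided by the count in vehicle wells, and each value is the median of duplicate plates.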

IMD-0354 + Palbociclib = compound: O=C(Nc1cc(C(F)(F)F)cc(C(F)(F)F)c1)c1cc(Cl)ccc1O [IMD-0354] + CC(=O)c1c(C)c2cnc(Nc3ccc(N4CCNCC4)cn3)nc2n(C2CCCC2)c1=O [Palbociclib] (partner 0.5 µM)
In short: as §1

IMD-0354 + Luminespib = compound: O=C(Nc1cc(C(F)(F)F)cc(C(F)(F)F)c1)c1cc(Cl)ccc1O [IMD-0354] + CCNC(=O)c1noc(-c2cc(C(C)C)c(O)cc2O)c1-c1ccc(CN2CCOCC2)cc1 [Luminespib] (partner 0.01 µM)
In short: as §1

CX-5461 + Lapatinib = compound: Cc1cnc(CNC(=O)c2c(=O)c3ccc(N4CCCN(C)CC4)nc3n3c2sc2ccccc23)cn1 [CX-5461] + CS(=O)(=O)CCNCc1ccc(-c2ccc3ncnc(Nc4ccc(OCc5cccc(F)c5)c(Cl)c4)c3c2)o1 [Lapatinib] (partner 2 µM)
In short: as §1

| Cell Line | relative viability (IMD-0354 + Phenformin; first compound 0.04 µM) | relative viability (IMD-0354 + Phenformin; first compound 0.1265 µM) | relative viability (IMD-0354 + Phenformin; first compound 0.4 µM) | relative viability (IMD-0354 + Phenformin; first compound 1.265 µM) | relative viability (IMD-0354 + Phenformin; first compound 4 µM) | relative viability (IMD-0354 + Palbociclib; first compound 0.04 µM) | relative viability (IMD-0354 + Palbociclib; first compound 0.1265 µM) | relative viability (IMD-0354 + Palbociclib; first compound 0.4 µM) | relative viability (IMD-0354 + Palbociclib; first compound 1.265 µM) | relative viability (IMD-0354 + Palbociclib; first compound 4 µM) | relative viability (IMD-0354 + Luminespib; first compound 0.04 µM) | relative viability (IMD-0354 + Luminespib; first compound 0.1265 µM) | relative viability (IMD-0354 + Luminespib; first compound 0.4 µM) | relative viability (IMD-0354 + Luminespib; first compound 1.265 µM) | relative viability (IMD-0354 + Luminespib; first compound 4 µM) | relative viability (CX-5461 + Lapatinib; first compound 0.01 µM) | relative viability (CX-5461 + Lapatinib; first compound 0.03162 µM) | relative viability (CX-5461 + Lapatinib; first compound 0.1 µM) | relative viability (CX-5461 + Lapatinib; first compound 0.3162 µM) | relative viability (CX-5461 + Lapatinib; first compound 1 µM) |
| --- | --- | --- | --- | --- | --- | --- | --- | --- | --- | --- | --- | --- | --- | --- | --- | --- | --- | --- | --- | --- |
| NCI-H23 | 0.811 | 0.81 | 0.313 | 0.198 | 0.189 | 0.482 | 0.418 | 0.349 | 0.153 | 0.189 | 0.299 | 0.212 | 0.247 | 0.178 | 0.145 | 1.15 | 1.19 | 0.82 | 0.266 | 0.362 |
| LCLC-97TM1 | 0.43 | 0.451 | 0.234 | 0.18 | 0.126 | 0.227 | 0.225 | 0.111 | 0.174 | 0.103 | 0.735 | 0.705 | 0.529 | 0.251 | 0.148 | 1.17 | 1.02 | 0.871 |  | 0.366 |
| EPLC-272H | 0.34 | 0.199 | 0.304 | 0.0841 | 0.0653 | 0.267 | 0.343 | 0.349 | 0.356 | 0.131 | 0.51 | 0.322 | 0.409 | 0.22 | 0.131 | 0.936 | 1.12 | 0.9 |  | 1.02 |
| NCI-H1915 | 0.37 | 0.31 | 0.26 | 0.182 | 0.156 | 0.461 | 0.489 | 0.424 | 0.234 | 0.143 | 0.609 | 0.665 | 0.296 | 0.355 | 0.226 | 1.01 | 1.06 | 0.99 | 0.379 | 1.04 |
| NCI-H2405 | 0.445 | 0.398 | 0.286 | 0.245 | 0.166 | 0.594 | 0.509 | 0.457 | 0.282 | 0.261 | 0.752 | 0.669 | 0.671 | 0.358 | 0.288 | 1.18 | 1.07 | 1.18 | 0.541 | 0.808 |
| NCI-H322M | 0.865 | 0.796 | 0.378 | 0.277 | 0.375 | 0.507 | 0.5 | 0.5 | 0.39 | 0.41 | 0.94 | 0.895 | 0.618 | 0.317 | 0.355 | 0.552 | 0.564 | 0.644 |  | 0.655 |
| NCI-H358 | 0.348 | 0.241 | 0.17 | 0.121 | 0.0927 | 0.144 | 0.136 | 0.119 | 0.0987 | 0.101 | 0.292 | 0.286 | 0.305 | 0.322 | 0.167 | 0.389 | 0.447 | 0.392 | 0.267 | 0.306 |
| NCI-H1793 | 0.386 | 0.344 | 0.157 | 0.163 | 0.147 | 0.298 | 0.317 | 0.211 | 0.191 | 0.225 | 0.149 | 0.159 | 0.152 | 0.143 | 0.175 | 0.693 | 0.628 | 0.819 | 0.399 | 0.643 |
| SK-MES-1 | 0.747 | 0.583 | 0.422 | 0.356 | 0.241 | 0.337 | 0.286 | 0.317 | 0.232 | 0.221 | 0.904 | 1.01 | 0.437 | 0.169 | 0.233 | 0.431 | 0.474 | 0.454 | 0.512 | 0.403 |
| NCI-H838 | 0.685 | 0.448 | 0.358 | 0.234 | 0.207 | 0.223 | 0.23 | 0.178 | 0.186 | 0.151 | 0.571 | 0.246 | 0.27 | 0.217 | 0.244 | 1.17 | 1.11 | 1.05 | 0.252 | 0.6 |
| CAL-12T | 0.623 | 0.512 | 0.252 | 0.117 | 0.134 | 0.633 | 0.423 | 0.325 | 0.189 | 0.164 | 0.432 | 0.434 | 0.338 | 0.126 | 0.172 | 0.697 | 0.673 | 0.486 | 0.247 | 0.617 |
